Consider two molecules from patent US20120195862A1, “BIO[…] OF HEMATOPOIESIS” (CHILDREN'S MEDICAL CENTER CORPORATION, priority 2009, published 2012).

“Also recorded” adds a separate entry of the source.

The subject of one assay is Runx1. Put plainly: Quantitative real-time PCR gene expression analysis of Runx1 in ES-derived cells (CD41+/cKit+). In kind it is cell-based, mouse. The conditions noted are these: 2 mM; for Runx1 expression in static cultures of ES-derived cells: static conditions, n=2. How it is done:
(§1) More specifically, in the instant approach, plates were coated with a thick layer of 1% gelatin (DIFCO #214340, Becton Dickinson). After 12 hr, cells were washed three times with 10 ml of warm PBS with calcium and incubated for 45 min with EB differentiation media with or without 2 mM N(G)-nitro-L-arginine methyl ester (L-NAME) or 2 mM N(G)-nitro-D-arginine methyl ester (D-NAME) (Sigma-Aldrich). Cells to be moved to the dynamic flow system were incubated in 7 ml of media, and static controls incubated in 20 ml of media. Following 45 min incubation, cells were either moved to the Dynamic Flow System and exposed to shear stress or maintained in a standard cell culture incubator. The shear stress ramped up in a step-wise fashion from 0 dyne/cm^2 to 5 dyne/cm^2 over a period of 12 hr, in order to minimize cell loss during the transition from static to dynamic culture. Following the 12 hr ramping period, the cells were then exposed to a constant 5 dyne/cm^2 shear stress for 36 hr. In cells exposed to shear stress, culture media with or without D-NAME or L-NAME were automatically exchanged and stored at 37° C. and 5% CO2. In static controls, culture medium was replaced after 24 hr and stored in 75 cm^2 flasks in a cell culture incubator. After 48 hr exposure to shear stress or growth under static conditions, cells were detached by 10 min incubation with a 1:1 dilution of Trypsin-Versene mixture (Cambrex, #17-161E) and Hank's Balanced Salt Solution.
Total RNA was extracted with a RNEASY® Micro Kit (QIAGEN, Inc., Valencia, Calif.), according to manufacturer's instructions. For RNA extraction from CD41^+/cKIT^+ cells, approximately 7,000 cells were sorted directly into 300 μl of Lysis Buffer. Reverse transcription of RNA was performed using MULTISCRIBE™ […] (Applied Biosystems, Foster City, Calif.), according to manufacturer's instructions. When processing FACS-sorted cells, RNA was eluted in 20 μl and all collected RNA was used in 50 μl reverse transcription reaction. […]
On the technique in general: Quantitative PCR measures a nucleic acid by following its amplification.

A further assay has as its system ES-derived cells. Put plainly: Methylcellulose hematopoietic colony forming unit (CFU) assay of ES-derived cells exposed to wall shear stress or static culture. In kind it is cell-based, mouse. The conditions noted are these: 2 mM; for number of CFUs in ES-derived cultures in static conditions: static conditions (no shear stress), n=2. The protocol: Ainv15 CDX4-inducible mouse embryonic stem cells (iCDX4 ES) were cultured on mitomycin-treated Mouse Embryonic Fibroblasts (MEFs) (Chemicon, strain CF-1) and passaged every 2 to 3 days with 0.25% trypsin/EDTA as previously described. Wang et al., 102 P.N.A.S. 19081-86 (2005). To induce differentiation, ES cells were trypsinized, gently dispersed by repetitive pipetting and re-plated for 45 min at 37° C. for MEF depletion. Floating and loosely-adherent cells were gathered, checked for viability with trypan blue, and diluted in Embryoid Body (EB) differentiation media (Iscove's Modified Dulbecco's Medium [IMDM], 10% FCS [STEMCELL Tech., Vancouver, British Columbia, cat #06952], Penicillin 10 units/ml, Streptomycin 10 μg/ml, 1 mM L-Glutamine, Monothiolglycerol 3.8 nl/ml, Fe-saturated transferrin 0.2 mg/ml, Ascorbic Acid 0.5 mg/ml), to a final concentration of 6.7×10^3 cell/ml. EBs were cultured via the hanging drop method in 15 μl drops on 15 cm bacterial dishes. Typically, 100 plates of EBs were used per experiment. After 48 hr, EBs were pooled into calcium and magnesium containing warm PBS and collected by precipitation in 50 ml Falcon tubes. Pooled EBs were transferred to 10 cm tissue culture dishes containing 10 ml of EB differentiation media each, placed on an orbital shaker moving at 75 rev/min, and incubated for an additional 30 hr. Following this second culture phase, day 3.25-EBs were collected by precipitation, washed two times in 30 ml calcium-free PBS and trypsinized for 1 min in a 1:1 dilution of calcium-free PBS and 0.25% Trypsin-EDTA. Trypsinization was blocked by addition of 10 ml EB differentiation media.
as §1, with “In cells exposed to shear stress, culture media with or without D-NAME or L-NAME were automatically exchanged and stored at 37° C. and 5% CO2. In static controls, culture medium was replaced after 24 hr and stored in 75 cm^2 flasks in a cell culture incubator. After 48 hr exposure to shear stress or growth under static conditions, cells were detached by 10 min incubation with a 1:1 dilution of Trypsin-Versene mixture (Cambrex, #17-161E) and Hank's Balanced Salt Solution.” left out
Methylcellulose assay was performed as previously described and scored on days 8 to 10 post-plating. […]

Assay [1] relates to hematopoietic progenitors in the aorta-gonad-mesonephros (AGM) region. Put plainly: In vivo colony forming unit (CFU) assay of the AGM region after treating pregnant mice. Also on record: species or system mouse. The conditions noted are these: 300 mg/kg i.p. on E8.5 and 24 hr later, E10.5 embryos, versus D-NAME, p=0.0008. The protocol:
Methylcellulose assay was performed as previously described and scored on days 8 to 10 post-plating. Wang et al., 102 P.N.A.S. 19081-86 (2005).
Day-7 post-coitum timed-pregnant Swiss-Webster mice were purchased from Taconic Farms. Noon on the day the copulation plug was found was designated 0.5 days. On day E8.5 (day 9 post coitum) mice were intraperitoneally injected with 300 mg/kg of L-NAME or D-NAME (SIGMA) dissolved in sterile, apyrogenic saline solution using a dose volume of 10 ml/kg. The injection was repeated after 24 hr. Exactly 24 hr after the second injection, mice were euthanized with CO2, embryos were harvested, and a conservative dissection of the AGM was performed. Embryo trunks were dissociated with 0.1% dispase and analyzed with the methylcellulose assay. Experiments were carried out with Institutional Animal Care and Use Committee approval from Harvard Medical School or Children's Hospital, Boston.

`COC(=O)[C@H](N)CCCN=C(N)N[N+](=O)[O-]` [D-NAME, N(G)-nitro-D-arginine methyl ester]: in the assay on Runx1, the “Runx1 expression in static cultures of ES-derived cells” value is given as “do not affect; also recorded: no effect”. Besides, in the assay on ES-derived cells, the “number of CFUs in ES-derived cultures in static conditions” value is “do not affect; also recorded: no effect”.
Consider `COC(=O)[C@@H](N)CCCNC(=N)N[N+](=O)[O-]` [L-NAME, N(G)-nitro-L-arginine methyl ester], for which the “WSS-mediated Runx1 upregulation” value in the assay with Runx1 (CD41+/cKit+ cells exposed to shear stress, n=3) is recorded as “does not affect; also recorded: did not affect”. In addition, the “Runx1 expression in static cultures of ES-derived cells” value in the assay on Runx1 is “do not affect; also recorded: no effect”. Besides, in assay [1], the “number of CFUs per AGM (hematopoietic progenitors in the AGM region)” value is reported as “reduction; also recorded: marked decrease”. Also, the “shear stress-induced enrichment in CFUs” value in the assay on ES-derived cells (shear stress, compared with cells treated with D-NAME) is listed as “significant reduction”. Besides, the “reduction of the WSS-mediated increase in hematopoietic colony forming units” value with ES-derived cells (wall shear stress 5 dyne/cm^2, n=3, p=0.04) worked out at 50%. Further, the “number of CFUs in ES-derived cultures in static conditions” value in the assay on ES-derived cells is listed as “do not affect; also recorded: no effect”.
